Results published in US20220332799A1, “HERV INHIBITORS FOR USE IN TREATING TAUOPATHIES” (Deutsches Zentrum Für Neurodegenerative Erkrankungen E.V. …, priority 2019, published 2022).
Entries after “also recorded” stand apart in the source; their conditions may differ.

What was measured:
N2a NM-GFP^sol cells = test: NM-GFP aggregate induction in recipient cells by EVs from donor clone N2a NM-HA^agg s2E; format: cell-based, mouse; settings: EVs isolated from donors treated with 10 μM for 3 days; no drug on recipients, 16 h
Description: To prepare EV-depleted medium, FCS was ultracentrifuged at 100,000×g for 20 h at 4° C. Medium supplemented with the EV-depleted FCS and antibiotics was subsequently filtered through […] and a 0.1 μM filter-sterilization devices (Millipore). For EV isolation, 2-4×10^6 cells were seeded in T175 flasks in 35 ml EV-depleted medium to reach confluence after 3 days. Cells and cell debris were pelleted by differential centrifugation (300×g, 10 min; 2,000×g, 20 min; 16,000×g, 30 min, 4° C.). The remaining supernatant (conditioned medium) was subjected to ultracentrifugation at 100,000×g for 1 h at 4° C. using rotors Ti45 or SW32Ti (Beckman Coulter). The pellet was rinsed in PBS and spun again using rotor SW55Ti at 100,000×g for 1 h at 4° C.
(§1) Recipient cells were cultured on CellCarrier-96 plates or 384 black microplates (PerkinElmer) at appropriate cell numbers for 1 h, and then treated with 5-10 μl of prepared samples (isolated EVs or recombinant NM fibrils). […] On average, a total of 3-4×10^4 cells per well and at least 3 wells per treatment were analyzed.
(§2) The treatment of cells with Amprenavir (10 μM; Santa Cruz) and DMSO was performed for 72 h in EV-depleted medium in T175 flasks. Afterwards, the total numbers of viable cells and the viability upon drug treatment were determined using the Vi-VELL™ XR Cell Viability Analyzer (Beckman Coulter). […]

[1] = system: HEK Tau-FusionRed^sol cells expressing murine XPR1-HA; test: Tau aggregate induction in recipient cells by EVs from N2a s2E Tau-GFP^CBD donor cells; format: cell-based, human; settings: EVs from treated donors; recipients cultured in drug-containing medium, 3 d
Description: To examine this effect on Tau aggregate spreading, an N2a s2E cell clone stably propagating aggregated Tau-GFP^CBD was produced (FIG. 11a). […]. Cells and EVs were analyzed for the presence of aggregated Tau-GFP. Pronase-resistant Tau-GFP was found in both cell lysate and EVs (FIG. 2q). To inhibit MuERV gene product maturation, donor cells were treated with Amprenavir for three days. Donor cells and donor cell-derived EVs were subsequently exposed for three days to recipient HEK cells expressing soluble Tau-FusionRed and the murine XPR1 receptor variant required for MuERV Env interaction. Due to this long incubation time, the coculture and EV induction assays were performed in the presence of Amprenavir (FIG. 11b). […]
as §1, §2

HEK NM-mCherry^sol cells = test: NM-mCherry aggregate induction by coculture with T47D NM-GFP^agg donor cells; format: cell-based, human; settings: 10 μM, donors 1 d pretreated, coculture 1 d in presence of drug; vs DMSO
[2] = system: HEK Tau-FusionRed^sol cells; test: Tau-FusionRed aggregate induction by coculture with T47D Tau-GFP^AD or Tau-GFP^FTLD donor cells; format: cell-based, human; settings: T47D Tau-GFP^AD or Tau-GFP^FTLD donors pretreated one day with 10 μM, coculture 3 d in presence of drug; vs DMSO
Description: FIG. 4: Human endogenous retrovirus proteins potentiate intercellular Tau aggregate induction. • a. Workflow of Amprenavir treatment. […]. Two days later, these donor cells were incubated with 10 μM Amprenavir or solvent control DMSO for 1 d. Subsequently, donor cells with NM-GFP^agg, Tau-GFP^FTLD or Tau-GFP^AD aggregates were cocultured with recipient HEK NM-mCherry^sol or HEK Tau-FusionRed^sol cells, respectively, for 1 d (NM) or 3 d (Tau) in the presence of 10 μM Amprenavir or DMSO. • b. […] Percentage of recipient HEK NM-Cherry cells that harbor induced NM-mCherry aggregates. • c., d. […] Percentage of HEK Tau-FusionRed cells that harbor Tau-FusionRed^agg after coculture with T47D Tau-GFP^agg donor cell lines (n=6, ***, p<0.001; unpaired student t test).
To examine the effect of HERV-K proteins on Tau aggregate spreading, a T47D donor cell line stably expressing Tau-GFP^sol was generated. […]
as §2

HERV-K = settings: Tyagi et al., Retrovirology (2017), 14:21; cited from earlier work

CC(C)CN(C[C@@H](O)[C@H](Cc1ccccc1)NC(=O)O[C@H]1CCOC1)S(=O)(=O)c1ccc(N)cc1 [Amprenavir]
EV-mediated aggregate induction in recipient cells (N2a NM-GFP^sol cells): basically abolished EV-mediated aggregate induction in recipient cells | Tau-FusionRed aggregate induction by EVs [1]: also decreased Tau-FusionRed aggregate induction in murine XPR1 expressing recipient cells | number of recipient cells with induced NM-mCherry aggregates (HEK NM-mCherry^sol cells): reduced the number of recipient cells with induced NM-mCherry aggregates compared to the DMSO control; also recorded: impairs NM-mCherry aggregate induction | Tau aggregate induction in recipient cells [2]: significant decrease in Tau aggregate induction in recipient cells; also recorded: impairs Tau-FusionRed aggregate induction | effectiveness against HERV-K (HERV-K): effective against HERV-K
